Experiment [1] relates to caecal/large colon digesta. Put plainly: Experiment 2 Part 5: efficacy of tylosin relative to virginiamycin, digesta incubated with glucose. In kind it is cell-based, horse. The note with it: antibiotic 1.00 μg/ml, 37°, 20 hours, mean.
The test system of experiment [2] is caecal/large colon digesta. The description is as above. In kind it is cell-based, horse. As to conditions: for L-lactate: digesta incubated with glucose, 37°, 20 hours, mean. On the procedure:
An in vitro fermentation experiment was conducted to determine the efficacy of tylosin relative to virginiamycin. Samples of strained caecal and large colon digesta (16 ml) were incubated with glucose solution (60 ug/ml) (4 ml) and varying concentrations of either tylosin or virginiamycin representing […], 2.0, 4.0 ug of tylosin or virginiamycin per ml. The 25 ml containers were incubated at 37° for 20 hours. There were three replicates per treatment.

Experiment [3] deals with cattle. As to conditions: Nagaraja et al. (1981); cited from earlier work.
In experiment [4] the test system is caecal and large colon contents. Put plainly: Experiment 2 Part 3: in vitro screening at 2 ug/ml in digesta of four horses. In kind it is cell-based, horse. The note with it: 2 ug antibiotic/ml, 15 mg cornstarch/ml, 20 hour incubation. On the procedure: (§1) Digesta was taken from the caecum and large colon from recently slaughtered animals and was filtered through nylon gauze (approximately 60 micron apertures). The fluid was diluted 1:1 with a buffer solution described by Bales et al. (1976) and incubated with wheat "corn starch" (with or without antibiotics) at 37° for 16 to 20 hours. Aliquots of digesta diluted with buffer (50 ml) were added to 100 ml conical flasks. The flasks were flushed with carbon dioxide before being sealed with a tightly fitting rubber cap. A 21 gauge needle was inserted through the rubber seal in order to allow gas to escape during the fermentation. On removal from the incubator sub-samples were immediately taken to measure L-lactic acid concentration and pH. For each treatment or level of antibiotic three replicate incubation flasks were used.
All four of the antibiotics, listed above, were incubated as previously described to provide 2 ug antibiotic and 15 mg cornstarch per ml incubation mixture. There was one flask per test and each antibiotic was incubated in digesta from both the caecum and the large colon taken from each of 4 animals. Samples of incubation fluid were taken following a 20 hour incubation and were analysed for L-lactate and pH.

Experiment [5] deals with caecal/large colon digesta. Kind of experiment: Experiment 2 Part 2: in vitro fermentation with cornstarch, antibiotics at or below 2 ug/ml. As to conditions: cornstarch 0.75 g per flask, 16 hours, mean. In kind it is cell-based, horse. On the procedure: as §1
Incubation flasks were set up as described above with cornstarch (0.75 g) containing virginiamycin, flavomycin or zinc-bacitracin a levels to provide: 0, 0.25, 0.5, 1.0 and 2 ug antibiotic/ml incubation mixture. These flasks were incubated for 16 hours. Flasks were also set up with 0.75 g cornstarch and no antibiotic equipped with a tap and sampling tube in order to take samples from the incubation vessels at various times during the fermentation. Samples were taken at the start of the incubation and at 2, 4, 6, 8, 12 and 24 h. These were analysed for L-lactate concentration and pH.

For experiment [6], the system named is mixed caecal/large colon digesta. Put plainly: Experiment 2 Part 1: in vitro fermentation of digesta with cornstarch, avoparcin, virginiamycin, flavomycin 2-32 ug/ml. Also on record: Lactate / Total VFA: unit not given here. As to conditions: cornstarch 15 mg/ml; for pH / Acet:Prop / Lactate / Total VFA: mean. In kind it is cell-based, horse. On the procedure: as §1
A range of concentrations of cornstarch providing: 0, 5, 10, 15 and 20 mg/ml diluted digesta (i.e. from 0 to 1 g cornstarch/conical flask) were tested to determine the amount required to produce a pattern of fermentation with high levels of lactic acid. Flasks were also prepared with cornstarch mixed with antibiotic premixes to provide 15 mg cornstarch/ml incubation mixture and 0, 2, 4, 8, 16 and 32 ug of avoparcin, virginiamycin or flavomycin per ml incubation mixture. After approximately 16 hour incubation at 37° samples were taken to measure lactic acid, VFA and pH.

Experiment [7] relates to sheep. The note with it: sheep; Muir et al (1980); cited from earlier work.
Setting [8] is: Horse 1, mean of caecum and large colon.
Where [9] appears, read: Horse 2, mean of caecum and large colon.
Where [10] appears, read: Horse 3, mean of caecum and large colon.
Setting [11] is: Horse 4, mean of caecum and large colon.
Setting [12] is: antibiotic 2 μg/ml, approx 16 hour incubation.
Where [13] appears, read: antibiotic 4 μg/ml, approx 16 hour incubation.
[14] abbreviates: antibiotic 8 μg/ml, approx 16 hour incubation.
The mark [15] stands for this setting: antibiotic 16 μg/ml, approx 16 hour incubation.
[16] abbreviates: antibiotic 32 μg/ml, approx 16 hour incubation.

Turning to `CC[C@H]1OC(=O)C[C@@H](O)[C@H](C)[C@@H](O[C@@H]2O[C@H](C)[C@@H](O[C@H]3C[C@@](C)(O)[C@@H](O)[C@H](C)O3)[C@H](N(C)C)[C@H]2O)[C@@H](CC=O)C[C@@H](C)C(=O)/C=C/C(C)=C/[C@@H]1CO[C@@H]1O[C@H](C)[C@@H](O)[C@@H](OC)[C@H]1OC` [Tylosin, tylosin], the L-lactate stood at 45.1 mmol/L in experiment [1], 122 mmol/L in experiment [2] (antibiotic 0.50 μg/ml), 38.7 mmol/L in experiment [2] (antibiotic 2.00 μg/ml) and 11.7 mmol/L in experiment [2] (antibiotic 4.00 μg/ml). Besides, the “reduction in lactic acid levels compared with virginiamycin” value in experiment [2] (at the concentrations used (0.5-4 ug/ml)) is reported as “did not cause the same reduction”. In addition, the “concentration of lactic acid during the fermentation of soluble carbohydrate” value in experiment [2] (higher levels of tylosin than virginiamycin required for similar reduction) is on record as “can reduce the concentration of lactic acid”.

As to `CC[C@@H](C(=O)[C@@H](C)[C@@H](O)[C@H](C)CCc1ccc(C)c(O)c1C(=O)O)[C@H]1O[C@](CC)([C@H]2CC[C@](O)(CC)[C@H](C)O2)C[C@@H]1C` [lasalocid], the “control of lactic acidosis” value in experiment [3] was “lactic acidosis could be controlled”.

On to bacitracin zinc [Zn-bacitracin], for which the pH in experiment [4] (Horse 1) is 4.91; in experiment [4] (Horse 2) it was 4.59; in experiment [4] (Horse 3) it was 4.76; in experiment [4] (Horse 4) it was 5.11; in experiment [4] (Mean of 4 horses), 4.84; in experiment [5] (antibiotic 0.25 μg/ml) it was 5.64. In addition, the pH in experiment [5] (antibiotic 0.50 μg/ml) turned out to be 5.86; in experiment [5] (antibiotic 1.00 μg/ml), 5.68; in experiment [5] (antibiotic 2.00 μg/ml), 5.59. The L-lactate in experiment [4] (setting [8]) is 26.8 mmol/L; in experiment [4] (setting [9]), 62.5 mmol/L; in experiment [4] (setting [10]), 35.1 mmol/L; in experiment [4] (setting [11]), 22.2 mmol/L; in experiment [4] (Mean of 4 horses) it was 36.6 mmol/L; in experiment [5] (antibiotic 0.25 μg/ml), 20.6 mmol/L. Besides, the L-lactate in experiment [5] (antibiotic 0.50 μg/ml) was 17.8 mmol/L; in experiment [5] (antibiotic 1.00 μg/ml), 15.9 mmol/L; in experiment [5] (antibiotic 2.00 μg/ml), 14.7 mmol/L.

As for flavomycin (bambermycin), the pH in experiment [4] (Horse 1) is given as 4.88; in experiment [4] (Horse 2), 4.54; in experiment [4] (Horse 3), 4.98; in experiment [4] (Horse 4) it was 5.07; in experiment [4] (Mean of 4 horses) it was 4.86; in experiment [5] (antibiotic 0.25 μg/ml), 5.69. The pH came out at 5.67 in experiment [5] (antibiotic 0.50 μg/ml); 5.67 in experiment [5] (antibiotic 1.00 μg/ml); 5.56 in experiment [5] (antibiotic 2.00 μg/ml); 6.57 in experiment [6] (antibiotic 2 μg/ml, approx 16 hour incubation at 37°); 6.52 in experiment [6] (setting [13]); 6.48 in experiment [6] (setting [14]). In addition, the pH in experiment [6] (setting [15]) stood at 6.47; in experiment [6] (setting [16]) it was 6.41. The L-lactate in experiment [4] (setting [8]) turned out to be 31.8 mmol/L; in experiment [4] (setting [9]) it was 55.6 mmol/L; in experiment [4] (setting [10]), 17.9 mmol/L; in experiment [4] (setting [11]) it was 23.7 mmol/L; in experiment [4] (Mean of 4 horses), 32.2 mmol/L; in experiment [5] (antibiotic 0.25 μg/ml), 12.4 mmol/L. Further, the L-lactate in experiment [5] (antibiotic 0.50 μg/ml) came out at 7.3 mmol/L; in experiment [5] (antibiotic 1.00 μg/ml) it was 9.9 mmol/L; in experiment [5] (antibiotic 2.00 μg/ml) it was 11.7 mmol/L. Further, the “Acet:Prop” value in experiment [6] (setting [12]) came to 3.4; in experiment [6] (setting [13]), 4.6; in experiment [6] (setting [14]), 5.7; in experiment [6] (setting [15]) it was 5.8; in experiment [6] (setting [16]), 5.8. Besides, the Lactate is recorded as 0.0 in experiment [6] (setting [12]); 0.0 in experiment [6] (setting [13]); 0.0 in experiment [6] (setting [14]); 0.0 in experiment [6] (setting [15]); 0.2 in experiment [6] (setting [16]). Also, the “Total VFA” value is 88.9 in experiment [6] (setting [12]); 93.7 in experiment [6] (setting [13]); 90.0 in experiment [6] (setting [14]); 85.6 in experiment [6] (setting [15]); 93.7 in experiment [6] (setting [16]). For the same molecule, in experiment [6] (at concentrations as low as 2 g/ml), the “control of lactic acid build-up” value was “total control”.

Regarding thiopeptin, the “control of wheat-induced acidosis” value in experiment [7] is recorded as “control of wheat-induced acidosis”.

Source of the values: patent US5204361A, “Method for treating laminitis in equine livestock” (priority 1988, dated 1993).
